# Experimental data as given in ChEMBL document CHEMBL3779844, “Biocatalyzed synthesis of difuranosides and their ability to trigger production of TNF-α” (2016).
# Active and inactive are the calls of the source. The calls are words filed in the database; no cut-off is given here.
# Columns and labels:
# RAW264.7 [1] = experiment: Immunomodulatory activity in mouse RAW264.7 cells assessed as TNF alpha production at 1 to 1000 ng/ml after 18 hrs by ELISA method; format: functional, cell-based
# RAW264.7 [2] = experiment: Immunomodulatory activity in mouse RAW264.7 cells assessed as increase in TNF alpha production after 18 hrs by ELISA method (reference value: 4.4 +/- 3.4 pg/ml); format: functional
# RAW264.7 [3] = experiment: Immunomodulatory activity in mouse RAW264.7 cells assessed as TNF alpha production at 1 to 1000 ng/ml after 18 hrs by ELISA method (reference value: 4.4 +/- 3.4 pg/ml); format: functional
Structure (SMILES),Activity (RAW264.7 [1]),also measured
CCCCCCCCO[C@H]1O[C@H]([C@H](C)O)[C@@H](O)[C@@H]1O[C@@H]1O[C@@H]([C@@H](O)CO)[C@H](O)[C@H]1O[C@@H]1O[C@@H]([C@@H](O)CO)[C@H](O)[C@H]1O (stereo in doubt),Active,–
CCCCCCCCO[C@@H]1O[C@@H]([C@H](O)CO)[C@H](O)[C@H]1O[C@H]1O[C@H]([C@@H](O)CO)[C@@H](O)[C@@H]1O[C@@H]1O[C@@H]([C@@H](O)CO)[C@H](O)[C@H]1O[C@@H]1O[C@@H]([C@@H](O)CO)[C@H](O)[C@H]1O (stereo in doubt),Active,–
CCCCCCCCO[C@@H]1O[C@@H]([C@H](O)CO)[C@H](O)[C@H]1O[C@@H]1O[C@@H]([C@H](O)CO)[C@H](O)[C@H]1O[C@H]1O[C@H]([C@H](O)CO)[C@@H](O)[C@@H]1O[C@@H]1O[C@@H]([C@@H](O)CO)[C@H](O)[C@H]1O[C@H]1O[C@H]([C@@H](O)CO)[C@@H](O)[C@@H]1O (stereo in doubt),Active,–
C[C@@H](O)[C@@H]1O[C@@H](O[C@H](CO)[C@@H]2O[C@@H](Oc3ccc([N+](=O)[O-])cc3)[C@H](O)[C@H]2O)[C@H](O)[C@H]1O,inactive,–
C[C@@H](O)[C@@H]1O[C@@H](O[C@H]2[C@H](Oc3ccc([N+](=O)[O-])cc3)O[C@@H]([C@H](O)CO)[C@@H]2O)[C@H](O)[C@H]1O,inactive,–
CCCCCCCCO[C@@H]1O[C@@H]([C@H](O)CO)[C@H](O)[C@H]1O[C@@H]1O[C@@H]([C@H](O)CO)[C@H](O)[C@H]1O,Active,–
C[C@@H](O)[C@@H]1O[C@@H](O[C@H]2[C@H](O[C@H]3[C@H](Oc4ccc([N+](=O)[O-])cc4)O[C@@H]([C@H](O)CO)[C@@H]3O)O[C@@H]([C@@H](C)O)[C@@H]2O)[C@H](O)[C@H]1O,Active,–
CCCCCCCCO[C@@H]1O[C@@H]([C@H](O)CO[C@@H]2O[C@@H]([C@H](O)CO)[C@H](O)[C@H]2O)[C@H](O)[C@H]1O,Active,–
O=[N+]([O-])c1ccc(O[C@@H]2O[C@@H]([C@H](O)CO)[C@H](O)[C@H]2O[C@@H]2O[C@@H]([C@H](O)CO)[C@H](O)[C@H]2O)cc1,Active,–
C[C@@H](O)[C@@H]1O[C@@H](O[C@@H]2[C@@H](O)[C@H](Oc3ccc([N+](=O)[O-])cc3)O[C@H]2[C@H](O)CO)[C@H](O)[C@H]1O,inactive,–
C[C@@H](O)[C@@H]1O[C@@H](OC[C@@H](O)[C@@H]2O[C@@H](Oc3ccc([N+](=O)[O-])cc3)[C@H](O)[C@H]2O)[C@H](O)[C@H]1O,inactive,–
O=[N+]([O-])c1ccc(O[C@@H]2O[C@@H]([C@H](O)CO[C@@H]3O[C@@H]([C@H](O)CF)[C@H](O)[C@H]3O)[C@H](O)[C@H]2O)cc1,inactive,–
CCCCCCCCO[C@H]1O[C@H]([C@@H](O)CF)[C@@H](O)[C@@H]1O[C@@H]1O[C@@H]([C@@H](O)CO)[C@H](O)[C@H]1O[C@@H]1O[C@@H]([C@@H](O)CO)[C@H](O)[C@H]1O (stereo in doubt),Active,–
O=[N+]([O-])c1ccc(O[C@@H]2O[C@@H]([C@H](O)CO)[C@H](O)[C@H]2O[C@@H]2O[C@@H]([C@H](O)CO)[C@H](O)[C@H]2O[C@@H]2O[C@@H]([C@H](O)CO)[C@H](O)[C@H]2O)cc1,Active,–
CCCCCCCCO[C@H]1O[C@H]([C@@H](O)CO)[C@@H](O)[C@@H]1O[C@@H]1O[C@@H]([C@@H](O)CO)[C@H](O)[C@H]1O[C@@H]1O[C@@H]([C@@H](O)CO)[C@H](O)[C@H]1O (stereo in doubt),Active,–
CCCCCCCCO[C@@H]1O[C@@H]([C@H](O)CF)[C@H](O)[C@H]1O[C@@H]1O[C@@H]([C@H](O)CF)[C@H](O)[C@H]1O,–,Activity (RAW264.7 [2]): 600 pg/mL
O=[N+]([O-])c1ccc(O[C@@H]2O[C@@H]([C@H](O)CF)[C@H](O)[C@H]2O[C@@H]2O[C@@H]([C@H](O)CF)[C@H](O)[C@H]2O)cc1,–,Activity (RAW264.7 [3]): >200 pg/mL
O=[N+]([O-])c1ccc(O[C@@H]2O[C@@H]([C@H](O)CO)[C@H](O)[C@H]2O[C@@H]2O[C@@H]([C@H](O)CF)[C@H](O)[C@H]2O)cc1,inactive,–
